# Experimental data as given in patent US20150152395A1, “CHIMERIC LUCIFERASES” (Connecticut College, priority 2012, published 2015).
# What was measured:
# Assay in all cases: Steady-state kinetic constants, bioluminescence activity
# Assay type in all cases: biochemical
# [1] = molecular target: T1, Photinus pyralis luciferase variant Ppy WT-TS5/I351V, PpyWT-TS (SEQ ID NO: 22) with Ile457Val/Ala482Gly/His489Lys/Ala503Asn/Lys543Gln/Ile351Val, SEQ ID NO: 12 (Photinus pyralis, UniProt P08659, A215L/A482G/A503N/E354K/F295L/H489K/I232A/I351V/I457V/K543Q/T214A)
# T1 construct: N-terminal GPLGS; pGEX-6P-2 GST fusion (tag cleaved), E. coli BL21
# T1 sequence (P08659 whole entry T214A/A215L/I232A/F295L/I351V/E354K/I457V/A482G/H489K/A503N/K543Q, the tested form may be a part): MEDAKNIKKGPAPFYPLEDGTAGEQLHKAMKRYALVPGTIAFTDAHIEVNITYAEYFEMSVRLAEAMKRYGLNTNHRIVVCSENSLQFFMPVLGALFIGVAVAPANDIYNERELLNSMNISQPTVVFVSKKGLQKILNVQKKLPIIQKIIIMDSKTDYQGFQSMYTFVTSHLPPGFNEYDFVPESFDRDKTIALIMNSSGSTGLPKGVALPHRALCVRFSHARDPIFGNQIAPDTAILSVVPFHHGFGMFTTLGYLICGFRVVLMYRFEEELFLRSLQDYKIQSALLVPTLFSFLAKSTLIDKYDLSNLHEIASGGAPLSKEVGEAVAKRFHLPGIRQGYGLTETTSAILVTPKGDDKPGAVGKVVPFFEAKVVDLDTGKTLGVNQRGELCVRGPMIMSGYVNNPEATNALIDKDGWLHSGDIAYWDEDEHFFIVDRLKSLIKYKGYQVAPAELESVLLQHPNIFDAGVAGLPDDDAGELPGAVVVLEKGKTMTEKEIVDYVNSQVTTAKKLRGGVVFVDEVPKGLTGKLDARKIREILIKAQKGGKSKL
# Protocol: (§1) Reactions were initiated by injection of solutions of the substrate being maintained at saturating concentration. Kinetic constants were determined using a nonlinear least squares method of the Enzyme Kinetics Pro software (SynTex), which fits data from the Michalis-Menten equation to a rectangular hyperbola. The corresponding kcat values were obtained by dividing the Vmax values by the amount (μmol) of each luciferase in the assay mixtures.
# [2] = molecular target: T2, Photinus pyralis luciferase variant Ppy RE-TS5/I351V, PpyRE-TS (SEQ ID NO: 24) with Ile457Val/Ala482Gly/His489Lys/Ala503Asn/Lys543Gln/Ile351Val, SEQ ID NO: 14 (Photinus pyralis, UniProt P08659, A215L/A482G/A503N/E354K/F295L/H489K/I232A/I351V/I457V/K543Q/S284T/T214A)
# T2 construct: N-terminal GPLGS; pGEX-6P-2 GST fusion (tag cleaved), E. coli BL21
# T2 sequence (P08659 whole entry T214A/A215L/I232A/S284T/F295L/I351V/E354K/I457V/A482G/H489K/A503N/K543Q, the tested form may be a part): as the sequence (P08659 whole entry T214A/A215L/I232A/F295L/I351V/E354K/I457V/A482G/H489K/A503N/K543Q, the tested form may be a part) above, with S284T counted along it
# Protocol: as §1
# [3] = molecular target: T3, Photinus pyralis luciferase PpyWT variant Ppy5, Ile457Val/Ala482Gly/His489Lys/Ala503Asn/Lys543Gln, SEQ ID NO: 10 (Photinus pyralis, UniProt P08659, A482G/A503N/H489K/I457V/K543Q)
# T3 construct: pGEX-6P-2 GST fusion (tag cleaved), E. coli BL21
# T3 sequence (P08659 whole entry I457V/A482G/H489K/A503N/K543Q, the tested form may be a part): as the sequence (P08659 whole entry T214A/A215L/I232A/F295L/I351V/E354K/I457V/A482G/H489K/A503N/K543Q, the tested form may be a part) above, with A214T, L215A, A232I, L295F, V351I, K354E counted along it
# Protocol: as §1
# [4] = molecular target: T4, Photinus pyralis luciferase variant Ppy GR-TS (Photinus pyralis, UniProt P08659, A215L/E354K/F250S/F295L/G246A/I232A/T214A/V241I)
# T4 construct: N-terminal GPLGS; pGEX-6P-2 GST fusion (tag cleaved), E. coli BL21
# T4 sequence (P08659 whole entry T214A/A215L/I232A/V241I/G246A/F250S/F295L/E354K, the tested form may be a part): as the sequence (P08659 whole entry T214A/A215L/I232A/F295L/I351V/E354K/I457V/A482G/H489K/A503N/K543Q, the tested form may be a part) above, with V241I, G246A, F250S, V351I, V457I, G482A, K489H, N503A, Q543K counted along it
# Protocol: as §1
# [5] = molecular target: T5, Photinus pyralis luciferase PpyWT variant Ppy19, Ppy14 plus Leu530Ile/Lys534Val/Ile540Lys/Ala542Pro/Lys543Gln (Photinus pyralis, UniProt P08659, A450P/A482G/A503N/A509H/A542P/D475S/D476E/H489K/I457V/I540K/K511R/K534V/K543Q/L472V/L487M/L530I/T507V/T508N/V517R)
# T5 construct: N-terminal GPLGS; pGEX-6P-2 GST fusion (tag cleaved), E. coli BL21
# Protocol: as §1
# [6] = read-out: Km Mg-ATP, pH 7.8, LH2 saturating
structure (smiles),measurement,setting,value
Nc1ncnc2c1ncn2[C@@H]1O[C@H](COP(=O)(O)OP(=O)(O)OP(=O)(O)O)[C@@H](O)[C@H]1O [Mg-ATP],kcat/Km,[1]; kcat divided by Mg-ATP Km,3160 ± 70 M⁻¹ s⁻¹
same,Km,[1]; [6],79 ± 5 µM
same,kcat/Km,[2]; kcat divided by Mg-ATP Km,1290 ± 140 M⁻¹ s⁻¹
same,Km,[2]; [6],93 ± 19 µM
same,kcat/Km,[3]; kcat divided by Mg-ATP Km,4310 ± 120 M⁻¹ s⁻¹
same,Km,[3]; [6],72 ± 7 µM
same,kcat/Km,[4]; kcat divided by Mg-ATP Km,500 ± 100 M⁻¹ s⁻¹
same,Km,[4]; [6],163 ± 16 µM
same,kcat/Km,[5]; kcat divided by Mg-ATP Km,5990 ± 110 M⁻¹ s⁻¹
same,Km,[5]; [6],50 ± 5 µM
